Measured values as given in ChEMBL document CHEMBL3352684, “Discovery of MK-3697: a selective orexin 2 receptor antagonist (2-SORA) for the treatment of insomnia” (Bioorg Med Chem Lett, 2014).
In brackets after ≈: the same amount, converted by molar mass.

Experiments:
[1] = molecular target: T1, Orexin/Hypocretin receptor type 1 (Homo sapiens, UniProt O43613, I408V); assay: Displacement of N-cyclobutyl-5-methyl-N-(2-([3H]-1-methyl-1H-benzo[d]imidazol-2-ylthio)ethyl)-2-(2H-1,2,3-triazol-2-yl)benzamide from human OX1R I408V mutant expressed in CHO cells by topcount analysis; format: cell-based
T1 sequence (O43613 whole entry I408V): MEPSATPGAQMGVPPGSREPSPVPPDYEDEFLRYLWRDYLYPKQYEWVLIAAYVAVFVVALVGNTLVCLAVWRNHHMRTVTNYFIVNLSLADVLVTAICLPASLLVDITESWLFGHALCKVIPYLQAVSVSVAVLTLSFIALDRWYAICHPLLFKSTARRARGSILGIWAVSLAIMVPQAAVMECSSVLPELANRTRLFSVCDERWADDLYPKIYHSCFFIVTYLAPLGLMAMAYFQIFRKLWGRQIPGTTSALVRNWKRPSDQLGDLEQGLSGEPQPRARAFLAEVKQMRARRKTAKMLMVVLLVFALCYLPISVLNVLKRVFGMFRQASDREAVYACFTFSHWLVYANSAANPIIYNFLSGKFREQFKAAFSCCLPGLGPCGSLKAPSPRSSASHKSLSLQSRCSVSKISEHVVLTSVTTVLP

Orexin receptor type 2 [2] = molecular target: T2, Orexin receptor type 2 (Homo sapiens, UniProt O43614); assay: Displacement of (S)-N-(2-(1H-pyrrol-1-yl)phenyl)-1-(2-([3H]-1-methyl-1H-benzo[d]imidazol-2-ylthio)acetyl)pyrrolidine-2-carboxamide from human OX2R expressed in CHO cells after 3 hrs by topcount analysis; format: cell-based
T2 sequence (O43614 whole entry): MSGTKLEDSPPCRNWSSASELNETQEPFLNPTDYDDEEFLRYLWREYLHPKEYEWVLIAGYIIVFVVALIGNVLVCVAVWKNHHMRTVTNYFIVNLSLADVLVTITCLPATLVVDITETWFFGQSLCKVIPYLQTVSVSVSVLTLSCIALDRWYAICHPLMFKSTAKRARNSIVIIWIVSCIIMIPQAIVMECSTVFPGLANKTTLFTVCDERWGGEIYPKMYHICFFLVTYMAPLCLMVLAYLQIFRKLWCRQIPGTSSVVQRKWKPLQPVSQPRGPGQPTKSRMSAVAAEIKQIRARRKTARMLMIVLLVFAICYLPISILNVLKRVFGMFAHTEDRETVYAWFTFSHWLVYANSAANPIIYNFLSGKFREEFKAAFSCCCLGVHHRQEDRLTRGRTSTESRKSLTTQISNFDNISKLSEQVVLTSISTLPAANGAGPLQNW

[3] = Clearance in dog with cassette dosing; format: ADME, organism-based, Canis lupus familiaris; conditions: in vivo
CHO [4] = assay: Selectivity ratio of Ki for human OX1R I408V mutant expressed in CHO cells to Ki for human OX2R expressed in CHO cells; format: cell-based
[5] = molecular target: T1, Orexin/Hypocretin receptor type 1; assay: Antagonist activity at human OX1R I408V mutant expressed in CHO cells assessed as inhibition of Ala-6,12-orexinA-induced effect after 5 mins by FLIPR assay; format: cell-based
Orexin receptor type 2 [6] = molecular target: T2, Orexin receptor type 2; assay: Antagonist activity at human OX2R expressed in CHO cells assessed as inhibition of Ala-6,12-orexinA-induced effect after 5 mins by FLIPR assay; format: cell-based
CHO [7] = assay: Selectivity ratio of IC50 for human OX1R Ile408Val mutant expressed in CHO cells to IC50 for human OX2R expressed in CHO cells; format: cell-based
[8] = Drug degradation in buffer assessed as compound remaining at pH 2 after 24 hrs; format: physicochemical; conditions: for remaining at 24 h: pH 2, read-out: Stability
[9] = Solubility of the compound in buffer at pH 2; format: physicochemical
[10] = Solubility of the compound in buffer at pH 7; format: physicochemical
Cytochrome P450 3A4 = Cytochrome P450 3A4 (Homo sapiens, UniProt P08684); assay: (§1) Time dependent inhibition of CYP3A4 (unknown origin); format: ADME
Chain of Cytochrome P450 3A4 (P08684 whole entry): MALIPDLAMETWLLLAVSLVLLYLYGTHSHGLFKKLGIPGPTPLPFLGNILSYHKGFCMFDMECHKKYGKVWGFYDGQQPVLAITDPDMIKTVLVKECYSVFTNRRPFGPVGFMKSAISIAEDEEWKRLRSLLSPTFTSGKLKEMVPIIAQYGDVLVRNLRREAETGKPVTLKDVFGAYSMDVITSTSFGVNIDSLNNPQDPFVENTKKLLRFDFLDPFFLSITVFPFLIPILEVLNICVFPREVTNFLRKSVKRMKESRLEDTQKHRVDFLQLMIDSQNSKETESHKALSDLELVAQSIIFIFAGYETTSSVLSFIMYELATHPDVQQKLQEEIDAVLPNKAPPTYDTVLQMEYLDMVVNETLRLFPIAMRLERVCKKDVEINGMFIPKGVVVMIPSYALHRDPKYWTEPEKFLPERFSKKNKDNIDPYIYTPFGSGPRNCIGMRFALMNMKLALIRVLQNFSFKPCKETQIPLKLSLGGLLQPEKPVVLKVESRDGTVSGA

CYP3A4 [11] = molecular target: T3, CYP3A4 (Homo sapiens, UniProt P08684); assay: as §1; format: ADME; conditions: human
T3 sequence (P08684 whole entry): as above

CYP3A4 [12] = molecular target: T3, CYP3A4; assay: Ratio of Kinact to Ki for CYP3A4 (unknown origin); format: ADME

Compound `COc1ccc(CNC(=O)c2nc(-c3cncc(C)c3)ccc2-c2ccccc2)nc1OC` has a Ki [1] of 2400 nM, a Ki (Orexin receptor type 2 [2]) of 43 nM and a clearance [3] of 28 mL/min/kg. For the same compound, the Ratio Ki (CHO [4]) was 56.
For `COc1ccc(CNC(=O)c2cc(-c3cncc(C)c3)ncc2N2CCC2)nc1OC`, the IC50 [5] was 10000 nM, the Ki [1] was 18000 nM and the Ki (Orexin receptor type 2 [2]) was 10 nM. The clearance [3] was 19 mL/min/kg, the IC50 (Orexin receptor type 2 [6]) was 83 nM and the Ratio IC50 (CHO [7]) was greater than 120. The Ratio Ki (CHO [4]) was 1800.
Work on `COc1ccc(CNC(=O)c2cc(-c3cncc(C)c3)ncc2-c2ccnnc2)nc1OC` yielded an IC50 [5] of 15000 nM, a Ki [1] of 39000 nM and a Ki (Orexin receptor type 2 [2]) of 193 nM. The IC50 (Orexin receptor type 2 [6]) was 1450 nM, the Ratio IC50 (CHO [7]) was greater than 10 and the Ratio Ki (CHO [4]) was 202.
Compound `COc1ccc(CNC(=O)c2cc(-c3cncc(C)c3)ccc2-c2ccccc2)nc1OC` has an IC50 [5] of 1540 nM, a Ki [1] of 1000 nM and a Ki (Orexin receptor type 2 [2]) of 0.3 nM. The clearance [3] was 51 mL/min/kg, the IC50 (Orexin receptor type 2 [6]) was 14 nM and the Ratio IC50 (CHO [7]) was 110. It also gave a Ratio Ki (CHO [4]) of 3330.
`COc1ccc(CNC(=O)c2nc(-c3cncc(C)c3)cnc2-c2ccccc2)nc1OC` showed an IC50 [5] greater than 20000 nM, a Ki [1] of 8500 nM and a clearance [3] of 37 mL/min/kg. It also gave an IC50 (Orexin receptor type 2 [6]) of 31 nM, a Ratio IC50 (CHO [7]) greater than 645 and a Ratio Ki (CHO [4]) of 6070.
Work on `COc1ccc(CNC(=O)c2cc(-c3cncc(C)c3)ncc2N2CCOCC2)nc1OC` yielded an IC50 [5] of 10000 nM, a Ki [1] of 1500 nM and a Ki (Orexin receptor type 2 [2]) of 75 nM. It also gave a clearance [3] of 15 mL/min/kg, an IC50 (Orexin receptor type 2 [6]) of 3500 nM and a Ratio IC50 (CHO [7]) greater than 3. It also gave a Ratio Ki (CHO [4]) of 20.
`COc1ccc(CNC(=O)c2cc(-c3cncc(C)c3)ncc2-c2ccccn2)nc1OC` showed an IC50 [5] of 4650 nM, a Ki [1] of 7900 nM and a Ki (Orexin receptor type 2 [2]) of 1.4 nM. It also gave an IC50 (Orexin receptor type 2 [6]) of 36 nM, a Ratio IC50 (CHO [7]) of 129 and a Ratio Ki (CHO [4]) of 5640.
With `COc1ccc(CNC(=O)c2cc(-c3cncc(C)c3)cnc2-c2ccccc2)nc1OC` the IC50 [5] was 2000 nM, the remaining at 24 h [8] was 100% and the Ki [1] was 720 nM. It also gave a Ki (Orexin receptor type 2 [2]) of 0.3 nM, a solubility [9] of 180 µM (≈ 79.3 µg/mL) and a clearance [3] of 27 mL/min/kg. For the same compound, the IC50 (Orexin receptor type 2 [6]) was 13 nM, the Ratio IC50 (CHO [7]) was 154 and the solubility [10] was 61 µM (≈ 26.9 µg/mL). For the same compound, the Ratio Ki (CHO [4]) was 2400.
With `COc1ccc(CNC(=O)c2cc(-c3cncc(C)c3)nnc2-c2ccccc2)nc1OC` the IC50 [5] was greater than 10000 nM, the Ki [1] was 15000 nM and the Ki (Orexin receptor type 2 [2]) was 11 nM. The IC50 (Orexin receptor type 2 [6]) was 170 nM, the Ratio IC50 (CHO [7]) was greater than 59 and the Ratio Ki (CHO [4]) was 1360.
With `COc1ccc(CNC(=O)c2cc(-c3cncc(Cl)c3)cnc2-c2ccccn2)nc1OC` [MK-1064] the Ki (Cytochrome P450 3A4) was 9500 nM, the kinact (CYP3A4 [11]) was 0.00183 s⁻¹ and the kinact/KI (CYP3A4 [12]) was 200 M⁻¹ s⁻¹.
In the case of `COc1ccc(CNC(=O)c2cc(-c3cncc(C)c3)ncc2-c2cccc(F)c2)nc1OC`, the IC50 [5] is reported as 1950 nM, the Ki [1] is reported as 4000 nM and the clearance [3] is reported as 18 mL/min/kg. For the same compound, the IC50 (Orexin receptor type 2 [6]) was 16 nM, the Ratio IC50 (CHO [7]) was 122 and the Ratio Ki (CHO [4]) was 4440.
`COc1ccc(CNC(=O)c2cc(-c3cncc(C)c3)ncc2-c2cnccn2)nc1OC` showed an IC50 [5] of 10000 nM, a Ki [1] of 31000 nM and a Ki (Orexin receptor type 2 [2]) of 7.6 nM. The clearance [3] was 24 mL/min/kg, the IC50 (Orexin receptor type 2 [6]) was 109 nM and the Ratio IC50 (CHO [7]) was greater than 92. The Ratio Ki (CHO [4]) was 4080.
Compound `COc1ccc(CNC(=O)c2sc(-c3cncc(C)c3)nc2-c2cccc(F)c2)nc1OC` has an IC50 [5] greater than 10000 nM, a Ki [1] of 12000 nM and a Ki (Orexin receptor type 2 [2]) of 140 nM. For the same compound, the IC50 (Orexin receptor type 2 [6]) was 1060 nM, the Ratio IC50 (CHO [7]) was greater than 9 and the Ratio Ki (CHO [4]) was 86.
For `COc1ccc(CNC(=O)c2cc(-c3cncc(C)c3)ncc2-c2cnn(C)c2)nc1OC`, the IC50 [5] was 10000 nM, the Ki [1] was 930 nM and the Ki (Orexin receptor type 2 [2]) was 4.1 nM. The IC50 (Orexin receptor type 2 [6]) was 167 nM, the Ratio IC50 (CHO [7]) was greater than 60 and the Ratio Ki (CHO [4]) was 227.
`COc1ccc(CNC(=O)c2nc(-c3cncc(C)c3)ncc2-c2ccccc2)nc1OC` gave an IC50 [5] greater than 10000 nM, a Ki [1] of 23000 nM and a Ki (Orexin receptor type 2 [2]) of 11 nM. For the same compound, the clearance [3] was 47 mL/min/kg, the IC50 (Orexin receptor type 2 [6]) was 120 nM and the Ratio IC50 (CHO [7]) was greater than 83.
Work on `COc1ccc(CNC(=O)c2cc(-c3cncc(Cl)c3)cnc2-c2ccccc2)nc1OC` yielded a remaining at 24 h [8] of 100%, a solubility [9] of 16 µM (≈ 7.37 µg/mL) and a solubility [10] of 10 µM (≈ 4.61 µg/mL).
With `COc1ccc(CNC(=O)c2cc(-c3cncc(C)c3)nc3onc(-c4ccccc4)c23)nc1OC` the IC50 [5] was greater than 10000 nM, the Ki [1] was 4100 nM and the Ki (Orexin receptor type 2 [2]) was 9 nM. The IC50 (Orexin receptor type 2 [6]) was 420 nM, the Ratio IC50 (CHO [7]) was greater than 24 and the Ratio Ki (CHO [4]) was 456.
With `COc1ccc(CNC(=O)c2cc(-c3cncc(C)c3)ncc2-c2ccccc2F)nc1OC` the IC50 [5] was 3000 nM, the Ki [1] was 8600 nM and the Ki (Orexin receptor type 2 [2]) was 1.4 nM. The clearance [3] was 17 mL/min/kg, the IC50 (Orexin receptor type 2 [6]) was 25 nM and the Ratio IC50 (CHO [7]) was 120. The Ratio Ki (CHO [4]) was 6140.
`COc1ccc(CNC(=O)c2cc(-c3cncc(C)c3)ncc2N2CCCC2)nc1OC` gave an IC50 [5] of 10000 nM, a Ki [1] of 14000 nM and a Ki (Orexin receptor type 2 [2]) of 4.5 nM. For the same compound, the IC50 (Orexin receptor type 2 [6]) was 37 nM, the Ratio IC50 (CHO [7]) was greater than 270 and the Ratio Ki (CHO [4]) was 3110.
Work on `COc1ccc(CNC(=O)c2cc(-c3cncc(C)c3)ncc2-c2cncc(F)c2)nc1OC` yielded an IC50 [5] of 10000 nM, a Ki [1] of 17000 nM and a Ki (Orexin receptor type 2 [2]) of 5.2 nM. It also gave a clearance [3] of 19 mL/min/kg, an IC50 (Orexin receptor type 2 [6]) of 57 nM and a Ratio IC50 (CHO [7]) of 192. For the same compound, the Ratio Ki (CHO [4]) was 3270.
Compound `COc1ccc(CNC(=O)c2cc(-c3cncc(C)c3)ncc2-c2ccccc2)nc1OC` has a Ki (Cytochrome P450 3A4) of 5600 nM, a kinact (CYP3A4 [11]) of 0.000217 s⁻¹ and an IC50 [5] of 2800 nM. For the same compound, the Stability ([8]; pH 2, 24 h) was “Stable”, the Ki [1] was 2700 nM and the kinact/KI (CYP3A4 [12]) was 217 M⁻¹ s⁻¹. The Ki (Orexin receptor type 2 [2]) was 0.5 nM, the clearance [3] was 15 mL/min/kg and the IC50 (Orexin receptor type 2 [6]) was 21 nM. It also gave a Ratio IC50 (CHO [7]) of 133 and a Ratio Ki (CHO [4]) of 5400.
